# Reference: PubChem BioAssay AID2060610 (Molecular Pharmacology Branch, DTP, NCI, 2025)
# “And” between values parts separate entries of the source, which are not always exact repeats. Identical values can stand only once.
# System: 616215-338-R-J1-PDC complex spheroids, viability % test/control
# Assay: Anticancer human tumor 616215-338-R-J1-PDC patient-derived colon adenocarcinoma cell line growth inhibition [CLK]
# Details: for viability, T/C: stronger effect = lower value
# In short: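 Patient-derived tumor cells grown as complex spheroids with HUVEC endothelial cells and mesenchymal stem cells, treated with drug combinations. Concentrations descend in half-log steps from near clinical Cmax, or from 10 microM if Cmax unknown.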
# [1] = curve of first compound, second compound 0.0316 µM
# [2] = curve of first compound, second compound 0.1 µM
# [3] = curve of first compound, second compound 0.316 µM
# [4] = curve of first compound, second compound 1 µM
# [5] = curve of first compound, second compound 3.16 µM
# [6] = curve of first compound, second compound 10 µM
# [7] = second compound 0.0316 µM, first compound 0.0316 µM
# [8] = second compound 0.0316 µM, first compound 0.1 µM
# [9] = second compound 0.0316 µM, first compound 0.316 µM
# [10] = second compound 0.0316 µM, first compound 1 µM
# [11] = second compound 0.0316 µM, first compound 3.16 µM
# [12] = second compound 0.0316 µM, first compound 10 µM
# [13] = second compound 0.1 µM, first compound 0.0316 µM
# [14] = second compound 0.1 µM, first compound 0.1 µM
# [15] = second compound 0.1 µM, first compound 0.316 µM
# [16] = second compound 0.1 µM, first compound 1 µM
# [17] = second compound 0.1 µM, first compound 3.16 µM
# [18] = second compound 0.1 µM, first compound 10 µM
# [19] = second compound 0.316 µM, first compound 0.0316 µM
# [20] = second compound 0.316 µM, first compound 0.1 µM
# [21] = second compound 0.316 µM, first compound 0.316 µM
# [22] = second compound 0.316 µM, first compound 1 µM
# [23] = second compound 0.316 µM, first compound 3.16 µM
# [24] = second compound 0.316 µM, first compound 10 µM
# [25] = second compound 1 µM, first compound 0.0316 µM
# [26] = second compound 1 µM, first compound 0.1 µM
# [27] = second compound 1 µM, first compound 0.316 µM
# [28] = second compound 1 µM, first compound 1 µM
# [29] = second compound 1 µM, first compound 3.16 µM
# [30] = second compound 1 µM, first compound 10 µM
# [31] = second compound 3.16 µM, first compound 0.0316 µM
# [32] = second compound 3.16 µM, first compound 0.1 µM
# [33] = second compound 3.16 µM, first compound 0.316 µM
# [34] = second compound 3.16 µM, first compound 1 µM
# [35] = second compound 3.16 µM, first compound 3.16 µM
# [36] = second compound 3.16 µM, first compound 10 µM
# [37] = second compound 10 µM, first compound 0.0316 µM
# [38] = second compound 10 µM, first compound 0.1 µM
# [39] = second compound 10 µM, first compound 0.316 µM
# [40] = second compound 10 µM, first compound 1 µM
# [41] = second compound 10 µM, first compound 3.16 µM
# [42] = second compound 10 µM, first compound 10 µM
# 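Further: spheroids exposed to agents for 7 days.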
# 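Wherever viability, T/C is given: 100% = DMSO vehicle wells.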
structure (smiles),measurement,setting,value
CN1CCN(c2cc(C(=O)Nc3cc4cc(-c5cnn(C)c5)ccc4cn3)ccn2)CC1,"viability, T/C",compound 0.0316 µM,99.7% [middle of 12 runs]
same,"viability, T/C",compound 0.1 µM,107% [middle of 12 runs]
same,"viability, T/C",compound 0.316 µM,34.7% [middle of 12 runs]
same,"viability, T/C",compound 1 µM,1.63% [middle of 11 runs]
same,"viability, T/C",compound 3.16 µM,1% [middle of 11 runs]
same,"viability, T/C",compound 10 µM,0.25% [middle of 10 runs]
same,IC50,"compound alone, run of 07/31/2023",238 nM [middle of 11 runs]
CC(CO)NC(=O)c1cc(-c2ccc(Cl)cc2)nn(-c2cnn(C)c2)c1=O (stereo not drawn),"viability, T/C",compound 0.0316 µM,90.7% and 94.5%
same,"viability, T/C",compound 0.1 µM,95.2% and 99.6%
same,"viability, T/C",compound 0.316 µM,101% and 96%
same,"viability, T/C",compound 1 µM,102% and 99.1%
same,"viability, T/C",compound 3.16 µM,110% and 95%
same,"viability, T/C",compound 10 µM,103% and 106%
same,IC50,curve of compound,> 10000 nM
O=C(c1cc(Cc2n[nH]c(=O)c3ccccc23)ccc1F)N1CCN(C(=O)C2CC2)CC1 + CN1CCN(c2cc(C(=O)Nc3cc4cc(-c5cnn(C)c5)ccc4cn3)ccn2)CC1,IC50,[1],> 10000 nM
same,IC50,[2],> 10000 nM
same,IC50,[3],< 31.6 nM
same,IC50,[4],< 31.6 nM
same,IC50,[5],< 31.6 nM
same,IC50,[6],< 31.6 nM
same,"viability, T/C",[7],99.4%
same,"viability, T/C",[8],113%
same,"viability, T/C",[9],100%
same,"viability, T/C",[10],96.6%
same,"viability, T/C",[11],103%
same,"viability, T/C",[12],67.3%
same,"viability, T/C",[13],114%
same,"viability, T/C",[14],110%
same,"viability, T/C",[15],98.9%
same,"viability, T/C",[16],107%
same,"viability, T/C",[17],82.9%
same,"viability, T/C",[18],55.4%
same,"viability, T/C",[19],34.9%
same,"viability, T/C",[20],44.1%
same,"viability, T/C",[21],31.3%
same,"viability, T/C",[22],40.5%
same,"viability, T/C",[23],30.6%
same,"viability, T/C",[24],29.3%
same,"viability, T/C",[25],0.12%
same,"viability, T/C",[26],0.17%
same,"viability, T/C",[27],0.13%
same,"viability, T/C",[28],0.1%
same,"viability, T/C",[29],1.83%
same,"viability, T/C",[30],0.09%
same,"viability, T/C",[31],0.09%
same,"viability, T/C",[32],0.15%
same,"viability, T/C",[33],0.12%
same,"viability, T/C",[34],0.1%
same,"viability, T/C",[35],0.12%
same,"viability, T/C",[36],0.19%
same,"viability, T/C",[37],0.11%
same,"viability, T/C",[38],0.14%
same,"viability, T/C",[39],0.18%
same,"viability, T/C",[40],0.13%
same,"viability, T/C",[41],0.23%
same,"viability, T/C",[42],1.83%
Nc1ccn(C2OC(CO)C(O)C2(F)F)c(=O)n1 (stereo not drawn) + CN1CCN(c2cc(C(=O)Nc3cc4cc(-c5cnn(C)c5)ccc4cn3)ccn2)CC1,IC50,[1],< 31.6 nM
same,IC50,[2],< 31.6 nM
same,IC50,[3],< 31.6 nM
same,IC50,[4],< 31.6 nM
same,IC50,[5],< 31.6 nM
same,IC50,[6],< 31.6 nM
same,"viability, T/C",[7],15.5%
same,"viability, T/C",[8],10.3%
same,"viability, T/C",[9],14.1%
same,"viability, T/C",[10],13.6%
same,"viability, T/C",[11],14.3%
same,"viability, T/C",[12],12.7%
same,"viability, T/C",[13],18%
same,"viability, T/C",[14],14.5%
same,"viability, T/C",[15],14%
same,"viability, T/C",[16],14.3%
same,"viability, T/C",[17],17%
same,"viability, T/C",[18],18%
same,"viability, T/C",[19],13.8%
same,"viability, T/C",[20],11%
same,"viability, T/C",[21],13.8%
same,"viability, T/C",[22],10.6%
same,"viability, T/C",[23],12.1%
same,"viability, T/C",[24],13.3%
same,"viability, T/C",[25],0.1%
same,"viability, T/C",[26],0.13%
same,"viability, T/C",[27],2.94%
same,"viability, T/C",[28],0.12%
same,"viability, T/C",[29],1.83%
same,"viability, T/C",[30],1.85%
same,"viability, T/C",[31],0.1%
same,"viability, T/C",[32],0.13%
same,"viability, T/C",[33],0.14%
same,"viability, T/C",[34],0.09%
same,"viability, T/C",[35],0.1%
same,"viability, T/C",[36],0.11%
same,"viability, T/C",[37],0.15%
same,"viability, T/C",[38],1.73%
same,"viability, T/C",[39],0.16%
same,"viability, T/C",[40],2%
same,"viability, T/C",[41],3.33%
same,"viability, T/C",[42],0.18%
C=CC(=O)Nc1cc(Nc2nccc(-c3cn(C)c4ccccc34)n2)c(OC)cc1N(C)CCN(C)C,"viability, T/C",compound 0.000949 µM,108% and 95%
same,"viability, T/C",compound 0.003 µM,93.5% and 105%
same,"viability, T/C",compound 0.00949 µM,107% and 85.4%
same,"viability, T/C",compound 0.03 µM,95.3% and 86.5%
same,"viability, T/C",compound 0.0949 µM,134% and 90.5%
same,"viability, T/C",compound 0.3 µM,100% and 111%
same,IC50,curve of compound,> 300 nM
COC1C=CCC(C)C(C)S(=O)(=O)NC(=O)c2ccc3c(c2)N(CC2CCC21)CC1(CCCc2cc(Cl)ccc21)CO3 (stereo not drawn),"viability, T/C",compound 0.0316 µM,42.2% and 92.1%
same,"viability, T/C",compound 0.1 µM,33.1% and 98.1%
same,"viability, T/C",compound 0.316 µM,95.7% and 96.9%
same,"viability, T/C",compound 1 µM,104% and 101%
same,"viability, T/C",compound 3.16 µM,38.7% and 103%
same,IC50,curve of compound,2050 nM and > 10000 nM
COc1c(OCCCN2CCOCC2)ccc2c3n(c(=NC(=O)c4cnc(N)nc4)nc12)CCN3 + CNC(=O)c1ccc(Nc2nc(OC3CCCC3)c3c(-c4ccc5nc(C)oc5c4)c[nH]c3n2)c(OC)c1,IC50,[1],208 nM
same,IC50,[2],45.9 nM
same,IC50,[3],< 3.16 nM
same,IC50,[4],< 3.16 nM
same,IC50,[5],< 3.16 nM
same,IC50,[6],< 3.16 nM
same,"viability, T/C","second compound 0.0316 µM, first compound 0.00316 µM",92.4%
same,"viability, T/C","second compound 0.0316 µM, first compound 0.01 µM",94.7%
same,"viability, T/C",[7],115%
same,"viability, T/C",[8],69.1%
same,"viability, T/C",[9],45.7%
same,"viability, T/C",[10],32.3%
same,"viability, T/C","second compound 0.1 µM, first compound 0.00316 µM",62.4%
same,"viability, T/C","second compound 0.1 µM, first compound 0.01 µM",61.5%
same,"viability, T/C",[13],57.7%
same,"viability, T/C",[14],34%
same,"viability, T/C",[15],26.6%
same,"viability, T/C",[16],26.1%
same,"viability, T/C","second compound 0.316 µM, first compound 0.00316 µM",41.4%
same,"viability, T/C","second compound 0.316 µM, first compound 0.01 µM",39.3%
same,"viability, T/C",[19],26.5%
same,"viability, T/C",[20],20.6%
same,"viability, T/C",[21],14.5%
same,"viability, T/C",[22],12.5%
same,"viability, T/C","second compound 1 µM, first compound 0.00316 µM",32.9%
same,"viability, T/C","second compound 1 µM, first compound 0.01 µM",30.1%
same,"viability, T/C",[25],21.2%
same,"viability, T/C",[26],13.1%
same,"viability, T/C",[27],9.29%
same,"viability, T/C",[28],9.49%
same,"viability, T/C","second compound 3.16 µM, first compound 0.00316 µM",35.6%
same,"viability, T/C","second compound 3.16 µM, first compound 0.01 µM",31.1%
same,"viability, T/C",[31],21.4%
same,"viability, T/C",[32],12%
same,"viability, T/C",[33],9.19%
same,"viability, T/C",[34],8.84%
same,"viability, T/C","second compound 10 µM, first compound 0.00316 µM",35.3%
same,"viability, T/C","second compound 10 µM, first compound 0.01 µM",29.4%
same,"viability, T/C",[37],19.2%
same,"viability, T/C",[38],11.1%
same,"viability, T/C",[39],10.4%
same,"viability, T/C",[40],7.75%
